Patent US20250161307A1, “PYRAZOLOPYRIMIDINES AS MODULATORS OF SPERMINE OXIDASE” (Janssen Pharmaceutica NV, priority 2022, published 2025)
Counter-ions that a name gives are not always drawn.

Legend:
SMOX = SMOX (Homo sapiens (Human), UniProt Q9NWM0); assay: Human SMOX assay (HyPerBlu chemiluminescent detection of hydrogen peroxide); type: biochemical; conditions: 2.5 nM full length hSMOX, spermine substrate, 1 h at room temperature, luminescence read; read-out: SMOx_IC50
Protocol: (§1) The direct detection of hydrogen peroxide produced from the enzymatic reaction of hSMOX or hPAOX in a biochemical assay format was measured using HyPerBlu (Lumigen, Southfield, MI), a small molecule boronate probe that reacts with hydrogen peroxide to generate a chemiluminescent signal. Inhibition of hSMOX or hPAOX enzyme results in a decrease in luminescence.
Test compounds (75 nL) dissolved in DMSO were added to a 384-well white assay plate (Greiner Bio-one, catalog #784075) using an ECHO Acoustic Dispenser (Labcyte). Each compound was serially diluted 3-fold in DMSO to prepare an 11-point dose response curve (columns 1-22). Column 23 and 24 contained 75 nL of 2 mM chlorhexidine and DMSO, respectively, to represent the 100% inhibited versus the neutral control reactions.
Subsequently, 3 μL/well of the substrate solution prepared in assay buffer (10 mM Hepes, pH 7.4, 150 mM NaCl, 1 mM EGTA, 0.01% Pluronic F-127, 0.05% ovalbumin) was dispensed into the assay plate followed by 3 μL/well of full length hSMOX enzyme with an N-terminal His tag from E. coli prepared in assay buffer to initiate the reactions. After a 1 h incubation at room temperature, 6 μL/well of HyPerBlu was added. After a 30 min incubation, the hydrogen peroxide product generated from the hSMOX reactions was measured using an endpoint luminescence read on the PHERAStar FS/FSX microplate reader (BMG LABTECH).
The final assay conditions included 10 mM Hepes, pH 7.4, 150 mM NaCl, 1 mM EGTA, 0.01% Pluronic F-127, 0.05% ovalbumin, 2.5 nM hSMOX, 30 µM spermine, and 1.25% DMSO.
Dose-response curves were fit and compound IC50 values were determined using Genedata Screener (Genedata AG).

hPAOX = hPAOX (Homo sapiens (Human), UniProt Q6QHF9); assay: Human PAOX assay (HyPerBlu chemiluminescent detection of hydrogen peroxide); type: biochemical; conditions: 60 pM recombinant PAOX, 20 μM N-acetylspermine substrate
Protocol: as §1
The hPAOX assay was run and the data analyzed similarly to the hSMOX assay described above, except the reactions contained 60 pM recombinant PAOX with an N-terminal His tag expressed from sf9 insect cells and used 20 μM N-acetylspermine as the substrate.

Sequence of SMOX (Q9NWM0 whole entry): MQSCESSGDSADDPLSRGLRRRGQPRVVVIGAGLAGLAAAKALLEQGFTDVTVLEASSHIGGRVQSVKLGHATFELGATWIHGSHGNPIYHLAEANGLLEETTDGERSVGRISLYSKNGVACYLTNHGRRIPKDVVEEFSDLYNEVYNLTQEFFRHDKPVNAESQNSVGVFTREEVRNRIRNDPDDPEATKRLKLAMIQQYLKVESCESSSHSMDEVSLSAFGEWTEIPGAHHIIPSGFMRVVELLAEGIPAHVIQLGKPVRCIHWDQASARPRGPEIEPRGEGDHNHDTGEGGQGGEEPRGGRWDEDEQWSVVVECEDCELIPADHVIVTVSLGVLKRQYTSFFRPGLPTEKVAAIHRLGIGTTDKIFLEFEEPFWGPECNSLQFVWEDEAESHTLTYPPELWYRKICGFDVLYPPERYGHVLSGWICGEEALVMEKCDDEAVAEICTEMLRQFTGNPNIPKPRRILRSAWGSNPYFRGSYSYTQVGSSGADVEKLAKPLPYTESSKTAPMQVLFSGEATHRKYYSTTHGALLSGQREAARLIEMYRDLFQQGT
Sequence of hPAOX (Q6QHF9 whole entry): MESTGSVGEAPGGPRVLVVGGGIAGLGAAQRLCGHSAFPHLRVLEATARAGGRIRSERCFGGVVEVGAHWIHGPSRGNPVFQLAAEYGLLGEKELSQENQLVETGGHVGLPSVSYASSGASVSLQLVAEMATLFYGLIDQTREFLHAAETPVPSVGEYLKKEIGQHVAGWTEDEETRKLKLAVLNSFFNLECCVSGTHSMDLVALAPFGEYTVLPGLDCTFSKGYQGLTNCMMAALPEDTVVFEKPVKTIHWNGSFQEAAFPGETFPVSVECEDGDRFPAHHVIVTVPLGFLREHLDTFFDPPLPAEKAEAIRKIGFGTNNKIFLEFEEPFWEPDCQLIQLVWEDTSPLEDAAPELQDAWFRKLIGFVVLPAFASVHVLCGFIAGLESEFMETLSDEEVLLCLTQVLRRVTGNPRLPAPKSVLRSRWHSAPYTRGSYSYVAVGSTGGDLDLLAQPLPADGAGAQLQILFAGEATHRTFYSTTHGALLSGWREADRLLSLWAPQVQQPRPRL

IC50 (SMOX)	IC50 (hPAOX)	Compound
1.49 µM	30.3 µM	Cc1c(C(=O)NCC2(C)CCN(C)C2)nn2c(-c3ccccc3)cc(-c3ccccc3)nc12 (stereo not shown) [Example 54, N-((1,3-Dimethylpyrrolidin-3-yl)methyl)-3-methyl-5,7-diphenylpyrazolo[1,5-a]pyrimidine-2-carboxamide]
0.874 µM	3.73 µM	O=C(NCCCn1ccnc1)c1cc2nc(-c3ccccc3)cc(N3CCC3)n2n1 [Example 56, N-(3-(1H-Imidazol-1-yl)propyl)-7-(azetidin-1-yl)-5-phenylpyrazolo[1,5-a]pyrimidine-2-carboxamide]
> 31.2 µM	24.8 µM	CN1CCN(c2cc(-c3ccccc3)nc3cc(C(=O)NCCCn4ccnc4)nn23)CC1 [Example 60, N-(3-(1H-Imidazol-1-yl)propyl)-7-(4-methylpiperazin-1-yl)-5-phenylpyrazolo[1,5-a]pyrimidine-2-carboxamide]
0.595 µM	2.45 µM	O=C(NCCCn1ccnc1)c1cc2nc(-c3ccccc3)cc(NC3CCCC3)n2n1 [Example 65, N-(3-(1H-imidazol-1-yl)propyl)-7-(cyclopentylamino)-5-phenylpyrazolo[1,5-a]pyrimidine-2-carboxamide]
0.93 µM	3.36 µM	CN(C)CCCNC(=O)c1cc2nc(-c3ccccc3)cc(N3CCCCC3)n2n1 [Example 70, N-(3-(dimethylamino)propyl)-5-phenyl-7-(piperidin-1-yl)pyrazolo[1,5-a]pyrimidine-2-carboxamide]
0.737 µM	26.7 µM	CC(C)Oc1cc(-c2ccccc2)nc2cc(C(=O)NC3CN(C)C3)nn12 [Example 75, 7-isopropoxy-N-(1-methylazetidin-3-yl)-5-phenylpyrazolo[1,5-a]pyrimidine-2-carboxamide]
0.725 µM	5.37 µM	CN1CC(NC(=O)c2cc3nc(-c4ccccc4)cc(Oc4ccccc4)n3n2)C1 [Example 76, N-(1-methylazetidin-3-yl)-7-phenoxy-5-phenylpyrazolo[1,5-a]pyrimidine-2-carboxamide]
0.519 µM	0.544 µM	CC(=O)Nc1cccc(-c2cc(-c3ccccc3)nc3cc(C(=O)NCCCn4ccnc4)nn23)c1 [Example 77, N-(3-(1H-imidazol-1-yl)propyl)-7-(3-acetamidophenyl)-5-phenylpyrazolo[1,5-a]pyrimidine-2-carboxamide]
0.285 µM	0.289 µM	COc1ccccc1-c1cc(-c2ccccc2)nc2cc(C(=O)NCCCn3ccnc3)nn12 [Example 80, N-(3-(1H-imidazol-1-yl)propyl)-7-(2-methoxyphenyl)-5-phenylpyrazolo[1,5-a]pyrimidine-2-carboxamide]
0.256 µM	0.291 µM	COc1cccc(-c2cc(-c3ccccc3)nc3cc(C(=O)NCCCn4ccnc4)nn23)c1 [Example 82, N-(3-(1H-imidazol-1-yl)propyl)-7-(3-methoxyphenyl)-5-phenylpyrazolo[1,5-a]pyrimidine-2-carboxamide]
0.681 µM	0.818 µM	Cc1ccc(-c2cc(-c3ccccc3)nc3cc(C(=O)NCCCn4ccnc4)nn23)cc1 [Example 83, N-(3-(1H-imidazol-1-yl)propyl)-5-phenyl-7-(p-tolyl)pyrazolo[1,5-a]pyrimidine-2-carboxamide]
0.33 µM	1.31 µM	O=C(NCCCn1ccnc1)c1cc2nc(-c3ccccc3)cc(-c3ccc4nonc4c3)n2n1 [Example 84, N-(3-(1H-imidazol-1-yl)propyl)-7-(benzo[c][1,2,5]oxadiazol-5-yl)-5-phenylpyrazolo[1,5-a]pyrimidine-2-carboxamide]
0.303 µM	0.387 µM	O=C(NCCCn1ccnc1)c1cc2nc(-c3ccccc3)cc(-c3cccc(O)c3)n2n1 [Example 87, N-(3-(1H-imidazol-1-yl)propyl)-7-(3-hydroxyphenyl)-5-phenylpyrazolo[1,5-a]pyrimidine-2-carboxamide]
0.996 µM	0.643 µM	CN1CC(NC(=O)c2cc3nc(-c4ccccc4)cc(-c4ncccn4)n3n2)C1 [Example 93, N-(1-methylazetidin-3-yl)-5-phenyl-7-(pyrimidin-2-yl)pyrazolo[1,5-a]pyrimidine-2-carboxamide]
> 31.2 µM	2.07 µM	CC(=O)Nc1ccc(-c2cc(-c3ccccc3)nc3cc(C(=O)NCCCn4ccnc4)nn23)cc1 [Example 95, N-(3-(1H-imidazol-1-yl)propyl)-7-(4-acetamidophenyl)-5-phenylpyrazolo[1,5-a]pyrimidine-2-carboxamide]
7.71 µM	7.08 µM	CN1CC(NC(=O)c2cc3nc(N4CCCCC4)cc(-c4ccccc4)n3n2)C1 [Example 99, N-(1-methylazetidin-3-yl)-7-phenyl-5-(piperidin-1-yl)pyrazolo[1,5-a]pyrimidine-2-carboxamide]

Second part, the compound before the results:

Compound	IC50 (SMOX)	IC50 (hPAOX)
CC1C(NC(=O)c2cc3nc(-c4ccccc4)cc(-c4ccccc4)n3n2)CN1C (stereo not shown) [Example 55, N-(1,2-Dimethylazetidin-3-yl)-5,7-diphenylpyrazolo[1,5-a]pyrimidine-2-carboxamide]	0.593 µM	6.53 µM
O=C(NCCCn1ccnc1)c1cc2nc(-c3ccccc3)cc(N3CCOCC3)n2n1 [Example 59, N-(3-(1H-Imidazol-1-yl)propyl)-7-morpholino-5-phenylpyrazolo[1,5-a]pyrimidine-2-carboxamide]	2.88 µM	5.71 µM
O=C(NCCCn1ccnc1)c1cc2nc(-c3ccccc3)cc(N3CC4CC4C3)n2n1 (stereo not shown) [Example 61, N-(3-(1H-Imidazol-1-yl)propyl)-7-(3-azabicyclo[3.1.0]hexan-3-yl)-5-phenylpyrazolo[1,5-a]pyrimidine-2-carboxamide]	0.486 µM	3.93 µM
O=C(NCCCn1ccnc1)c1cc2nc(-c3ccccc3)cc(NC3CCC3)n2n1 [Example 64, N-(3-(1H-Imidazol-1-yl)propyl)-7-(cyclobutylamino)-5-phenylpyrazolo[1,5-a]pyrimidine-2-carboxamide]	0.779 µM	1.46 µM
O=C(NCCCn1ccnc1)c1cc2nc(-c3ccccc3)cc(N3CCCC3)n2n1 [Example 66, N-(3-(1H-imidazol-1-yl)propyl)-5-phenyl-7-(pyrrolidin-1-yl)pyrazolo[1,5-a]pyrimidine-2-carboxamide]	0.395 µM	2.5 µM
CN1CC(NC(=O)c2cc3nc(-c4ccccc4)cc(N4CCC[C@@H](O)C4)n3n2)C1 [Example 67, (R)-7-(3-hydroxypiperidin-1-yl)-N-(1-methylazetidin-3-yl)-5-phenylpyrazolo[1,5-a]pyrimidine-2-carboxamide]	0.177 µM	3.6 µM
CN1CCC(NC(=O)c2cc3nc(-c4ccccc4)cc(N4CCCCC4)n3n2)C1 (stereo not shown) [Example 71, N-(1-methylpyrrolidin-3-yl)-5-phenyl-7-(piperidin-1-yl)pyrazolo[1,5-a]pyrimidine-2-carboxamide trifluoroacetate]	0.988 µM	5.36 µM
CN1CCC(NC(=O)c2cc3nc(-c4ccccc4)cc(N4CCCCC4)n3n2)CC1 [Example 74, N-(1-methylpiperidin-4-yl)-5-phenyl-7-(piperidin-1-yl)pyrazolo[1,5-a]pyrimidine-2-carboxamide]	17.7 µM	9.83 µM
Cn1ccc(-c2cc(-c3ccccc3)nc3cc(C(=O)NCCCn4ccnc4)nn23)n1 [Example 85, N-(3-(1H-imidazol-1-yl)propyl)-7-(1-methyl-1H-pyrazol-3-yl)-5-phenylpyrazolo[1,5-a]pyrimidine-2-carboxamide]	0.812 µM	2.37 µM
O=C(NCCCn1ccnc1)c1cc2nc(-c3ccccc3)cc(-c3cccnc3)n2n1 [Example 96, N-(3-(1H-imidazol-1-yl)propyl)-5-phenyl-7-(pyridin-3-yl)pyrazolo[1,5-a]pyrimidine-2-carboxamide]	1.25 µM	6.91 µM
O=C(NCCCn1ccnc1)c1cc2nc(-c3ccccc3)cc(-c3ccncc3)n2n1 [Example 97, N-(3-(1H-imidazol-1-yl)propyl)-5-phenyl-7-(pyridin-4-yl)pyrazolo[1,5-a]pyrimidine-2-carboxamide]	4.57 µM	3.61 µM
CN1CC(NC(=O)c2cc3nc(N4CCCC4)cc(-c4ccccc4)n3n2)C1 [Example 98, N-(1-methylazetidin-3-yl)-7-phenyl-5-(pyrrolidin-1-yl)pyrazolo[1,5-a]pyrimidine-2-carboxamide]	4.59 µM	> 31.2 µM
CN1CC(NC(=O)c2cc3nc(N4CCC4)cc(-c4ccccc4)n3n2)C1 [Example 100, 5-(azetidin-1-yl)-N-(1-methylazetidin-3-yl)-7-phenylpyrazolo[1,5-a]pyrimidine-2-carboxamide]	4.01 µM	> 31.2 µM
